For one assay, the target named is T1, ABHD6 (Mus musculus, UniProt Q8R2Y0).
T1 construct: Brain; from tissue; host or cells: mouse brain proteome
T1 sequence (Q8R2Y0 1-336): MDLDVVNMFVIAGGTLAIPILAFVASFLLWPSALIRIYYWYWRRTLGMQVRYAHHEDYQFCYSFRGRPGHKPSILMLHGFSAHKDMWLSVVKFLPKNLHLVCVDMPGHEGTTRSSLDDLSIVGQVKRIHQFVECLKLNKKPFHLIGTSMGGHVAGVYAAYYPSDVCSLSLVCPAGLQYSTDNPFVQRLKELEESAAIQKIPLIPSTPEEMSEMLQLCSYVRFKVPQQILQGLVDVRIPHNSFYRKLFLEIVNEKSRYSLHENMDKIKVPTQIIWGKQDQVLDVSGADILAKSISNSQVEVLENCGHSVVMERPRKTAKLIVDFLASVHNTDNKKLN
The assay is described as follows: In vitro competitive activity-based protein profiling, mouse brain proteome, ABHD6. The class given is biochemical. The settings on record: mouse. The protocol:
[Worded in the source for another target; this target is reported under the same test.] (§1) Proteomes (human prefrontal cortex or cell membrane fractions) (50 μL, 1.0 mg/mL total protein concentration) were preincubated with varying concentrations of inhibitors at 37° C. After 30 min, FP—Rh or HT-01 (1.0 μL, 50 μM in DMSO) was added and the mixture was incubated for another 30 min at room temperature. Reactions were quenched with SDS loading buffer (15 μL-4×) and run on SDS-PAGE.

A further assay has as its target T2, MGLL (Mus musculus, UniProt O35678).
T2 construct: Brain; from tissue; host or cells: mouse brain proteome
T2 sequence (O35678 1-303): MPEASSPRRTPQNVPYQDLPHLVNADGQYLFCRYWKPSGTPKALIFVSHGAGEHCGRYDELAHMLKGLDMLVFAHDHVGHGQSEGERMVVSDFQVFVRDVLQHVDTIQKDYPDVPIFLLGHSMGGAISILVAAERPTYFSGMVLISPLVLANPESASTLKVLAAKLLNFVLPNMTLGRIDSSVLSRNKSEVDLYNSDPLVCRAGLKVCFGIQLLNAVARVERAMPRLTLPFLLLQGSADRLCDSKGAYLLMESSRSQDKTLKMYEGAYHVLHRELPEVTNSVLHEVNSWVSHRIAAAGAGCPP
Put plainly: In vitro competitive activity-based protein profiling, mouse brain proteome. Format: biochemical. As to the method: [Worded in the source for another species; this species is reported under the same test.] as §1

The next assay has as its target T3, MAGL (Mus musculus, UniProt O35678).
T3 construct: from tissue; host or cells: brain of wild-type C57Bl/6J mice
T3 sequence (O35678 1-303): T2 sequence (O35678 1-303)
Put plainly: Mouse brain proteomes from inhibitor treated mice (oral gavage, brain proteomes analyzed 4 h after administration). Format: in vivo, mouse (C57Bl/6J). The settings on record: brain proteome 4 h after administration, read-out: % Inh 5 mg/kg MGLL (Mouse). In a few lines: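 Wild-type C57Bl/6J mice dosed orally in polyethylene glycol vehicle; brains removed 4 h post-dose and brain proteomes prepared and analysed for MAGL and serine hydrolase activity by previously established methods.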

Molecules are shown by their SMILES. pIC50: −log10 of the molar value.

Turning to `O=C(OC(C(F)(F)F)C(F)(F)F)N1CCC2(CCN(Cc3ccc(C(F)(F)F)cc3N3CC4CCC(C3)O4)CC2)C1` [Example 190, 1,1,1,3,3,3-Hexafluoropropan-2-yl 8-(2-(8-oxa-3-azabicyclo[3.2.1]octan-3-yl)-4-(trifluoromethyl)benzyl)-2,8-diazaspiro[4.5]decane-2-carboxylate], the figures for the pIC50 at ABHD6 and on MGLL were less than 6.00 and greater than 7.00, respectively. On MAGL, the inhibition at 5 mg/kg is no less than 75%.
On to `O=C(OC(C(F)(F)F)C(F)(F)F)N1CCC2(CCN(Cc3ccc(Cl)cc3N3CCCCC3)CC2)C1` [Example 191, 1,1,1,3,3,3-Hexafluoropropan-2-yl 8-(4-chloro-2-(piperidin-1-yl)benzyl)-2,8-diazaspiro[4.5]decane-2-carboxylate], for which the pIC50 at ABHD6 is less than 6.00; on MGLL, greater than 7.00. For the same molecule, the inhibition at 5 mg/kg on MAGL was no less than 75%.
In the same order, the values of `O=C(OC(C(F)(F)F)C(F)(F)F)N1CCC2(CCN(Cc3ccc(C(F)(F)F)cc3N3CCC(F)CC3)CC2)C1` [Example 192, 1,1,1,3,3,3-Hexafluoropropan-2-yl 8-(2-(4-fluoropiperidin-1-yl)-4-(trifluoromethyl)benzyl)-2,8-diazaspiro[4.5]decane-2-carboxylate] are less than 6.00, greater than 7.00 and 25 to 75%.
In the same order, the values of `CS(=O)(=O)N1CCC2(CCN(c3cc(C(F)(F)F)ccc3CN3CCN(C(=O)OC(C(F)(F)F)C(F)(F)F)CC3)C2)CC1` [Example 196, 1,1,1,3,3,3-Hexafluoropropan-2-yl 4-(2-(8-(methylsulfonyl)-2,8-diazaspiro[4.5]decan-2-yl)-4-(trifluoromethyl)benzyl)piperazine-1-carboxylate] are less than 6.00, greater than 7.00 and no more than 25%.
On to `CC(=O)N1CCC2(CC1)CCN(c1cc(C(F)(F)F)ccc1CN1CCN(C(=O)OC(C(F)(F)F)C(F)(F)F)CC1)C2` [Example 197, 1,1,1,3,3,3-Hexafluoropropan-2-yl 4-(2-(8-acetyl-2,8-diazaspiro[4.5]decan-2-yl)-4-(trifluoromethyl)benzyl)piperazine-1-carboxylate], for which the negative logarithm of the IC50 (pIC50) on ABHD6 was less than 6.00; on MGLL, greater than 7.00. Further, the inhibition at 5 mg/kg at MAGL was no more than 25%.
With `CC(=O)N1CCC2(CC1)CN(c1cc(Cl)ccc1CN1CCN(C(=O)OC(C(F)(F)F)C(F)(F)F)CC1)C2` [Example 198, 1,1,1,3,3,3-Hexafluoropropan-2-yl 4-(2-(7-acetyl-2,7-diazaspiro[3.5]nonan-2-yl)-4-chlorobenzyl)piperazine-1-carboxylate], the pIC50 at ABHD6 was less than 6.00; on MGLL it was greater than 7.00. Besides, at MAGL, the inhibition at 5 mg/kg was no less than 75%.
On to `CC(=O)N1CCC2(CC1)CN(c1cc(C(F)(F)F)ccc1CN1CCN(C(=O)OC(C(F)(F)F)C(F)(F)F)CC1)C2` [Example 199, 1,1,1,3,3,3-Hexafluoropropan-2-yl 4-(2-(7-acetyl-2,7-diazaspiro[3.5]nonan-2-yl)-4-(trifluoromethyl)benzyl)piperazine-1-carboxylate], for which the values for the negative-log IC50 (pIC50) at ABHD6 and at MGLL were less than 6.00 and greater than 7.00, respectively. Moreover, on MAGL, the inhibition at 5 mg/kg is no less than 75%.
In the same order, the values of `CS(=O)(=O)N1CC2(CCN(c3cc(C(F)(F)F)ccc3CN3CCN(C(=O)OC(C(F)(F)F)C(F)(F)F)CC3)CC2)C1` [Example 211, 1,1,1,3,3,3-Hexafluoropropan-2-yl 4-(2-(2-(methylsulfonyl)-2,7-diazaspiro[3.5]nonan-7-yl)-4-(trifluoromethyl)benzyl)piperazine-1-carboxylate] are less than 6.00, greater than 7.00 and no less than 75%.
Turning to `CS(=O)(=O)N1CC2(CCN(c3cc(Cl)ccc3CN3CCN(C(=O)OC(C(F)(F)F)C(F)(F)F)CC3)CC2)C1` [Example 212, 1,1,1,3,3,3-Hexafluoropropan-2-yl 4-(4-chloro-2-(2-(methylsulfonyl)-2,7-diazaspiro[3.5]nonan-7-yl)benzyl)piperazine-1-carboxylate], the pIC50 at ABHD6 is less than 6.00; on MGLL, greater than 7.00. For the same molecule, the inhibition at 5 mg/kg on MAGL is no less than 75%.

The values above are taken from patent publication US20210214375A1 (LUNDBECK LA JOLLA RESEARCH CENTER, INC., priority 2017, published 2021).
